In patent publication US20250213587A1, “ITK INHIBITORS FOR INCREASING TH1 CELL ACTIVITY” (Corvus Pharmaceuticals, Inc., priority 2022, published 2025):
Entries after “also recorded” stand apart in the source; their conditions may differ.

Assays:
RLK = molecular target: T1, RLK (Homo sapiens, UniProt P42681); test: Human kinome profiling at 1.0 μM, RLK; type: biochemical; conditions: read-out: percent control, RLK
T1 construct: purchased Invitrogen PV5860

[1] = tested on: colitis in C.B-17 SCID mice; test: Mouse T cell adoptive transfer colitis model; type: in vivo
Method: To enable long-term dosing in animal studies, a CPI-818-formulated mouse diet (300 mg/kg/day), and a control diet, with macronutrient levels matching the common Teklad 2018 diet were created (Research Diets, Inc.). Adequate drug exposure was confirmed by standard LC-MS method in plasma samples. Female BALB/c mice (11-12 weeks old) and female Fox Chase C.B-17 severe combined immunodeficient (SCID) mice (6-7 weeks old) were purchased from Charles River Laboratories. […] A third group on control diet was treated weekly via intraperitoneal (IP) route with 0.5 mg/mouse of anti-IL-12 p40 (clone C17.8) (BioXcell BE0051). On study day 0, SCID mice were injected IP with 4×10^5 CD4^+CD45RB^hi splenic T cells from BALB/c mice. On study day 48, animals were sacrificed. Colons were harvested for measurements. The distal section was preserved in 10% neutral buffered formalin, embedded into paraffin blocks, and sent to HistoTox Labs, Inc. for histologic analyses. Therapeutic efficacy was based on body weights, colon weights, and colon lengths. This study was carried out at Bolder BioPATH, Inc. in accordance with the test facility standard operating procedures, the World Health Organization Quality Practices in Basic Biomedical Research guidelines, and in compliance with all state and federal regulations.
Each slide containing 3 cross sections of the distal colon from each animal was stained with hematoxylin and eosin (H&E), or with an anti-CD3 antibody, and evaluated by a board-certified veterinary pathologist blinded to treatment information. Histologic lesions in H&E-stained slides were scored separately for severity 0-5, where 0=absent, 1=minimal, 2=mild, 3=moderate, 4=marked, 5=severe. Anti-CD3-stained slides were scanned using an Aperio AT2 whole slide scanner. Exclusions were applied to remove debris and tissue artifacts from the analyzed area. An algorithm was applied to the samples using Visiopharm (VIS) image analysis software. A count-based thresholding method was utilized to determine positivity of each pixel on the slide. The average of the three colon samples per slide was taken to determine both the number of immunolabeled CD3 cells and the total area of the colon. The output images underwent a quality control check after analysis was complete. CD3-immunolabeled cell density was calculated per 10,000 μm^2 using the following formula: […]
The body weights over time between two groups of animals were compared using the two-way analysis of variance (2-way ANOVA) method. Organ weights or lengths were compared using a Student's unpaired, two-tailed, t-test with Welch's correction. All statistical analyses were performed using Prism Version 8.3.0 (GraphPad Software).

T1 sequence (P42681 whole entry): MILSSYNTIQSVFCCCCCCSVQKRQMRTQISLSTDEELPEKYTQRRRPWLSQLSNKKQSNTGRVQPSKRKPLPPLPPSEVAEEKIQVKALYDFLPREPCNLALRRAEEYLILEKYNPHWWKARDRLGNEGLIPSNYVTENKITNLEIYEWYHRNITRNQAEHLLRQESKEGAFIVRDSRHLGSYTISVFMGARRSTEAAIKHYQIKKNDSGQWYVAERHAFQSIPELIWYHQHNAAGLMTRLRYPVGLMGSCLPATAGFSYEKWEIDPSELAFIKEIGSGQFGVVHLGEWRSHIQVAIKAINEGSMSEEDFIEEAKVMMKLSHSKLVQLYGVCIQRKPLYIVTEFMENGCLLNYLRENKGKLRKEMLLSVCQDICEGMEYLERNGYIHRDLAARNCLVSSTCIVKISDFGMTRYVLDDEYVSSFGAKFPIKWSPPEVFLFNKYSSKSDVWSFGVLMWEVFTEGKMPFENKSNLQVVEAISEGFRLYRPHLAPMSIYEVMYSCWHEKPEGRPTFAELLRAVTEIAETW

SMILES: C=CC(=O)N1CCCN(C(=O)c2cc(Sc3cnc(NC(=O)C4CC4)s3)c(C)cc2OC)C[C@H]1C [CPI-818]
- remaining activity at 1 µM (RLK): 70%
- protection from colitis (diarrhea, weight loss) ([1]; diet 300 mg/kg/day from one week before transfer): protected from colitis
- infiltration of CD3+ T cells in colon ([1]; histology): blocked the infiltration of CD3^+ T cells; also recorded: prevented infiltration of CD3+ T cells
- severity of histologic lesions ([1]; inflammation, mucosal necrosis, epithelial hyperplasia, submucosa edema): significantly reduced the severity
- colon weights and lengths ([1]; necropsy 7 weeks post-transfer): within the ranges of naïve animals
